Reference: US6645960B1, “Antifungal sordaricin derivatives” (Glaxo Wellcome S.A., priority 1999, dated 2003)

How the values were obtained:
Candida albicans 4711 = assay: standard in vitro screen, minimum inhibiting concentration (MIC) by two-fold serial dilution, in the presence or absence of mouse serum; type: cell-based; conditions: for MIC C.albicans4711: absence of mouse serum; for MIC 50%serum C.albicans4711: presence of 50% mouse serum
Procedure: The in vitro evaluation of the anti-fungal activity of compounds of the invention was performed on liquid or solid medium by the anti-fungal two-fold serial dilution technique of determining the minimum inhibitory concentration (MIC) of anti-fungal agent that inhibited development of growth after 24 to 48 hours of incubation at 37° C. For example a series of agar plates or broth microdilution panels containing two-fold dilutions of anti-fungal agent were inoculated with a standard culture of a clinically relevant pathogen, in the presence and absence of activated or inactivated serum. The agar plates or broth microdilution panels were then examined for the presence or absence of growth of the fungus and the appropriate MIC values determined. […] Compounds of formula (I) have been tested for antifungal activity in a standard in vitro screen and the minimum inhibiting concentration (MIC;μg/ml) determined for each compound against a relevant strain of Candida albicans in the presence or absence of mouse serum.

[1] = test system: battery of fungal organisms; conditions: tested against a battery of fungal organisms; cited from earlier work

## C=CCN1C[C@H](OC[C@@]23C[C@@H]4[C@H](C)CC[C@H]4[C@@]4(C=O)C[C@@H]2C=C(C(C)C)[C@@]34C(=O)OC(C)OC(=O)OCC)O[C@H](C)C1.Cl (single isomer, unassigned) [Example 3]
Candida albicans 4711; hydrochloride
  MIC C.albicans4711: 62 mg/L
  MIC 50%serum C.albicans4711: 0.06 mg/L

## C=CCN1C[C@H](OC[C@@]23C[C@@H]4[C@H](C)CC[C@H]4[C@@]4(C=O)C[C@@H]2C=C(C(C)C)[C@@]34C(=O)OC(C)OC(=O)OCC)O[C@H](C)C1.Cl (single isomer, unassigned) [Example 2]
Candida albicans 4711; hydrochloride
  MIC C.albicans4711: 8 mg/L
  MIC 50%serum C.albicans4711: 0.12 mg/L

## [[1R-(1α,3aβ,4β,4aβ,7β,7aα,8aβ)]8a-[(2R,6R)-(4-allyl-6-methyl-morpholin-2-yl)-oxymethyl]-4-formyl-4,4a,5,6,7,7a,8,8a-octahydro-7-methyl-3-(1-methylethyl)-1,4-methano-s-indacene-3a(1H)-carboxylic acid, pivaloyloxymethyl ester hydrochloride [Example 5]
Candida albicans 4711
  MIC C.albicans4711: >125 mg/L
  MIC 50%serum C.albicans4711: 0.05 mg/L

## CO[C@H]1[C@@H](O)[C@H](O)[C@H](OC[C@@]23C[C@@H]4[C@H](C)CC[C@H]4[C@@]4(C=O)CC2C=C(C(C)C)[C@@]34C(=O)O)O[C@@H]1C [sordarin]
[1]
  antifungal activity: only moderately active

## C/C=C/C=C\C(=O)O[C@H]1[C@H](O)[C@H](OCC23C[C@@H]4[C@H](C)CC[C@H]4C4(C=O)CC2C=C(C(C)C)C34C(=O)O)O[C@H](C)[C@H]1OC (stereo partly drawn) [zofimarin]
[1]
  antifungal activity: only moderately active

## [[1R-(1α,3aβ,4β,4aβ,7β,7aα,8aβ)]8a-[(2R,6R)-(4-allyl-6-methyl-morpholin-2-yl)-oxymethyl]-4-formyl-4,4a,5,6,7,7a,8,8a-octahydro-7-methyl-3-(1-methylethyl)-1,4-methano-s-indacene-3a(1H)-carboxylic acid, phthalidyl ester hydrochloride [Example 4]
Candida albicans 4711
  MIC 50%serum C.albicans4711: 0.25 mg/L
